This is an account of results in EP2924037A1, “QUINAZOLINE DERIVATE AND USE THEREOF AS APOPTOSIS INHIBITOR” (Linx Pharmaceutical Co., Ltd., priority 2012, dated 2013).

Test [1] can be described thus: Effect on serum glucose in mice. Format: in vivo. The note with it: Mus musculus, ip; 0.4 mg/kg i.p. once, measured 18 hours later; t-test P<0.01 for terazosin; read-out: reduction of the serum glucose level. The procedure:
Mice were injected terazosin (0.4 mg/kg i.p.) once. The serum glucose level of the mice was measured 18 hours later. […] By the same method, exemplary compounds Co.1, Co.3, Co.7, Co.9, Co.13, Co.16, Co.19, Co.24, Co.27 and Co.32 as described in the present invention were all shown to be effective to reduce the serum glucose level by 20% to 50%.

In test [2] the target is T1, pgk1 (Mus musculus, UniProt P09411).
T1 construct: His; made in house; host or cells: E. coli
T1 sequence (P09411 1-417): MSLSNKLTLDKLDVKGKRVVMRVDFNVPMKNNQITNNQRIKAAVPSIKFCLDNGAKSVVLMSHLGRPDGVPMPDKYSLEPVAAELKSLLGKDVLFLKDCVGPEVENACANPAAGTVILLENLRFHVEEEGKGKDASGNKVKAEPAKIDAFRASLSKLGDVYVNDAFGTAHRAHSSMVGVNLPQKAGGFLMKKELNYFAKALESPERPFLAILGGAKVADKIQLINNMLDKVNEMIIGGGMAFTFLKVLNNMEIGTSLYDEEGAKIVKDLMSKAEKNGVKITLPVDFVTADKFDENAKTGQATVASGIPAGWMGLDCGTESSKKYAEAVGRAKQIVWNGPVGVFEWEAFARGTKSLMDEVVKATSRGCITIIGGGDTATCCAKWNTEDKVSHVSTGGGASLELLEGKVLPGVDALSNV
The test can be described thus: Activity assay of pgk1 (GAPDH-coupled, absorbance at 340 nm). The test is classed as biochemical. Here is the method: The recombinant mouse pgk1 protein (His-pgk1) was expressed in the E. Coli. The protein was purified by a Nickel column. The proteins were diluted to 0.15 unit /mL. Then, different concentrations of terazosin were added to determine the pgk1 activity.
According to the components of Colorimetric GAPDH Assay Kit (ScienCells), the reaction solution was prepared with solutions of GAPDH, HEPES, and MgSO4. A predetermined concentration of the compound of Formula I was added to the reaction solution (30 mM Hepes, 3 mM ATP, 0.22 mM NADH, 10 mM MgSO4, 10 mM 3-PGA, 3-4 U/ml GAPDH, pH 7.5). Absorbance was measured at 25 °C with a spectroscope (340 nm). Relative activity of pgk1 was calculated based on the changes of absorbance value within 1-10 minutes. The activity has a positive correlation with the changes of absorbance value. The absorbance of the same compound at 340 nm was subtracted in the test group.

Test [3] relates to cerebral thrombosis. In words: Mouse model of cerebral thrombosis, infarct volume. The test is classed as in vivo. The note with it: 0.4 mg/kg i.p.; 6 mice per condition; t-test P<0.05. The procedure:
In a mouse model of cerebral thrombosis, the mouse brains were stained after death from thrombosis. […] The statistical analysis was performed based on % infarct volume = white area/total area, 6 mice were tested for each condition. t-test, P<0.05.

Where [4] appears, read: read-out: Activity* (the times of pgk1 activity induced by 0.02µg/ml of the tested compound).

Each structure is given as a SMILES string. Where two headings read alike, the source gives them in different places.

Take `CCCCCCNc1nc(N2CCN(C(=O)C3CCCO3)CC2)nc2cc(OC)c(OC)cc12` (centres unmarked) [Co.7]: the inhibition in vivo at 0.4 mg/kg in test [1] lay in the range of 20 to 50%. Also, in test [2] (setting [4]), the fold induction at 0.02 µg/mL is 2.1. Further, the “infarct volume (% infarct volume = white area/total area)” value in test [3] is “effective to reduce the infarct volume”. For `COc1c(OC)c(C(F)(F)F)c2c(N)nc(N3CCN(C(=O)C4CCCO4)CC3)nc2c1N1CCCCC1` (centres unmarked) [Co.27], the inhibition in vivo at 0.4 mg/kg in test [1] is 20 to 50%. Moreover, the fold induction at 0.02 µg/mL in test [2] (setting [4]) is 0.9. As to `COc1cc2nc(N3CCN(C(=O)C4CCCO4)CC3)nc(Nc3ccccc3)c2cc1OC` (centres unmarked) [Co.12], the fold induction at 0.02 µg/mL in test [2] (setting [4]) is 2.6.

Take `COc1cc2nc(N3CCN(C(=O)C4CCCO4)CC3)nc(NN)c2cc1OC` (centres unmarked) [Co.3]: in test [1], the inhibition in vivo at 0.4 mg/kg fell in the range of 20 to 50%. Moreover, in test [2] (setting [4]), the fold induction at 0.02 µg/mL was found to be 1.9. Take `COc1cc2c(N)nc(N3CCN(C(=O)C4CCCO4)CC3)nc2cc1NC(=O)c1ccccc1` (centres unmarked) [Co.23]: the fold induction at 0.02 µg/mL in test [2] (setting [4]) was 0.7. Same read-out and setting: with `CCOCCOc1c(OC)c(OC)c(OCCOCC)c2c(N)nc(N3CCN(C(=O)C4CCCO4)CC3)nc12` (centres unmarked) [Co.25] the figure was 2.7; with `CCCCc1c(OC)c(OC)c(OC)c2c(N)nc(N3CCN(C(=O)C4CCCO4)CC3)nc12` (centres unmarked) [Co.30], 1.8. Still for that read-out and setting: with `COc1cc2nc(N3CCN(C(=O)C4CCCO4)CC3)nc(N3CCCCC3)c2cc1OC` (centres unmarked) [Co.10] the figure was 0.7. As to `COc1cc2nc(N3CCN(C(=O)C4CCCO4)CC3)nc(NCCCCC(F)(F)F)c2cc1OC` (centres unmarked) [Co.8], the fold induction at 0.02 µg/mL in test [2] (setting [4]) came to 0.9. Moreover, the “infarct volume (% infarct volume = white area/total area)” value in test [3] was “effective to reduce the infarct volume”. Regarding `Nc1nc(N2CCN(C(=O)C3CCCO3)CC2)nc2cc3c(cc12)OCO3` (centres unmarked) [Co.15], the fold induction at 0.02 µg/mL in test [2] (setting [4]) stood at 0.6.

Regarding `C#CCNc1nc(N2CCN(C(=O)C3CCCO3)CC2)nc2cc(OC)c(OC)cc12` (centres unmarked) [Co.6], the fold induction at 0.02 µg/mL in test [2] (setting [4]) is 1.2.

As for `COc1cc2nc(N3CCN(C(=O)C4CCCO4)CC3)nc(N(C)CCOCCO)c2cc1OC` (centres unmarked) [Co.11], in test [2] (setting [4]), the fold induction at 0.02 µg/mL came to 2.1. In the case of `CCOCCOc1cc2nc(N3CCN(C(=O)C4CCCO4)CC3)nc(N)c2cc1OCCOCC` (centres unmarked) [Co.16], the inhibition in vivo at 0.4 mg/kg in test [1] was 20 to 50%. The fold induction at 0.02 µg/mL in test [2] (setting [4]) is 1.7. In addition, in test [3], the “infarct volume (% infarct volume = white area/total area)” value is on record as “effective to reduce the infarct volume”. On to `COc1c(OC)c(OC)c2c(N)nc(N3CCN(C(=O)C4CCCO4)CC3)nc2c1NC(=O)c1ccccc1` (centres unmarked) [Co.31], for which the fold induction at 0.02 µg/mL in test [2] (setting [4]) was 0.6. Regarding `COc1cc2nc(N3CCN(C(=O)C4CCCO4)CC3)nc(NCCOCCO)c2cc1OC` (centres unmarked) [Co.2], the fold induction at 0.02 µg/mL in test [2] (0.02 µg/ml, read-out: activation of pgk1 represented by fold changes) amounted to 2.3; in test [2] (setting [4]), 2.3.

On to `CCCc1cc2nc(N3CCN(C(=O)C4CCCO4)CC3)nc(N)c2cc1OC` (centres unmarked) [Co.22], for which the fold induction at 0.02 µg/mL in test [2] (setting [4]) came out at 2.4. Still for that read-out and setting: with `COc1cc2c(N)nc(N3CCN(C(=O)C4CCCO4)CC3)nc2cc1OC(C)=O` (centres unmarked) [Co.17] the figure was 1.1. With `COc1cc2nc(N3CCN(C(=O)C4CCCO4)CC3)nc(NC(=O)c3ccccc3)c2cc1OC` (centres unmarked) [Co.14], in test [2] (setting [4]), the fold induction at 0.02 µg/mL stood at 1.5. The “infarct volume (% infarct volume = white area/total area)” value in test [3] was “effective to reduce the infarct volume”. As to `Nc1nc(N2CCN(C(=O)C3CCCO3)CC2)nc2cc3cccnc3cc12` (centres unmarked) [Co.20], in test [2] (setting [4]), the fold induction at 0.02 µg/mL came out at 1.9.

On to `C=CCNc1nc(N2CCN(C(=O)C3CCCO3)CC2)nc2cc(OC)c(OC)cc12` (centres unmarked) [Co.5], for which, in test [2] (setting [4]), the fold induction at 0.02 µg/mL amounted to 1.5. The same measure, in the same setting: the result for `COc1c(OC)c(OC)c2c(N)nc(N3CCN(C(=O)C4CCCO4)CC3)nc2c1OC(C)=O` (centres unmarked) [Co.26] reads 3.2. For the compound `COc1cc2c(N)nc(N3CCN(C(=O)C4CCCO4)CC3)nc2cc1OC1CC=CCC1` (centres unmarked) [Co.24], in test [1], the inhibition in vivo at 0.4 mg/kg lay within 20 to 50%. Further, in test [2] (setting [4]), the fold induction at 0.02 µg/mL was determined as 0.4.

With `COc1c(OC)c(OC)c2c(N)nc(N3CCN(C(=O)C4CCCO4)CC3)nc2c1OC1CC=CCC1` (centres unmarked) [Co.32], the inhibition in vivo at 0.4 mg/kg in test [1] was 20 to 50%. In test [2] (setting [4]), the fold induction at 0.02 µg/mL came out at 2.8. Moreover, in test [3], the “infarct volume (% infarct volume = white area/total area)” value is reported as “effective to reduce the infarct volume”.
